Results as given in patent US20180111893A1, “POLYCATIONIC AMPHIPHILES AND POLYMERS THEREOF AS ANTIMICROBIAL AGENTS AND METHODS USING SAME” (Temple University-Of The Commonwealth System of Higher …, priority 2015, published 2018).

Tests used:
Assay in all cases: Minimum inhibitory concentration (MIC)
Assay type in all cases: cell-based
[1] = system: community-acquired methicillin-resistant Staphylococcus aureus CA-MRSA (USA300-0114); settings: for difference in MIC of monoQAC versus triscationic analog against CA-MRSA: monocationic n,0,0 vs triscationic n,1,1; for potency against CA-MRSA: dye-based monoQACs; for MIC CA-MRSA: Table 6
Procedure: (§1) As used herein, the term “minimum inhibitory concentration (MIC)” refers to the lowest concentration of an antimicrobial agent that will inhibit the visible growth of a microorganism after overnight incubation. MIC values against bacteria, for example, the Gram-positive Staphylococcus aureus and Enterococcus faecalis and the Gram-negative Escherichia coli and Pseudomonas aeruginosa were determined by standard methods. See also P. A. Wayne, Methods for Dilution Antimicrobial Tests for Bacteria that Grow Aerobically; Approved Standard, Ninth Edition, 2012, CLSI Document M07-A9, Vol. 32 No. 2, which is incorporated by reference herein in its entirety.
(§2) Compounds were serially diluted two-fold from a 10% DMSO/aqueous stock solution to yield twelve test concentrations. Overnight S. aureus, E. faecalis, E. coli, P. aeruginosa, CA-MRSA, and HA-MRSA cultures diluted to ca. 10^6 cfu/mL in Mueller-Hinton media and 100 μL were inoculated into each well of a U-bottom 96-well plate (BD Biosciences, BD351177) containing 100 μL of compound solution. Plates were incubated statically at 37° C. for 72 hours upon which time wells were evaluated visually for bacterial growth. The MIC was determined as the lowest concentration of compound resulting in no bacterial growth visible to the naked eye, based on the majority of three independent experiments. Positive and negative DMSO/aqueous solution and media controls were conducted for each trial. See Peng et al., 2011, Chem. Comm. 47:4896-4898.
as §2, with “trial.” for “trial. See Peng et al., 2011, Chem. Comm. 47:4896-4898.”

[2] = system: Staphylococcus aureus (SA; MSSA SH1000); settings: Table 6
Procedure: as §1, §2
as §2, with “trial.” for “trial. See Peng et al., 2011, Chem. Comm. 47:4896-4898.”

[3] = system: Enterococcus faecalis (OG1RF); settings: Table 6
Procedure: as §1, §2
as §2, with “trial.” for “trial. See Peng et al., 2011, Chem. Comm. 47:4896-4898.”

[4] = system: Escherichia coli (MC4100); settings: Table 6
Procedure: as §1, §2
as §2, with “trial.” for “trial. See Peng et al., 2011, Chem. Comm. 47:4896-4898.”

[5] = system: Pseudomonas aeruginosa (PAO1); settings: Table 6
Procedure: as §1, §2
as §2, with “trial.” for “trial. See Peng et al., 2011, Chem. Comm. 47:4896-4898.”

[6] = system: hospital-acquired methicillin-resistant Staphylococcus aureus HA-MRSA (ATCC 33591); settings: Table 6
Procedure: as §1, §2
as §2, with “trial.” for “trial. See Peng et al., 2011, Chem. Comm. 47:4896-4898.”

Structure (SMILES)	increase in MIC against CA-MRSA compared to SA ([1]; dye-based QACs, bacteria with vs without efflux pumps) [fold]	difference in MIC of monoQAC versus triscationic analog against CA-MRSA [1]	potency against CA-MRSA ([1]; in words)	MIC against CA-MRSA ([1]; dye-based QACs) [µM]	difference in MIC/activity between SA and CA-MRSA ([1]; dye-based QACs, in words)	MIC SA [2] [µM]	MIC CA-MRSA [1] [µM]	MIC EF [3] [µM]	MIC EC [4] [µM]	MIC PA [5] [µM]	MIC HA-MRSA [6] [µM]
CCCCCCCCCC[N+](C)(C)c1ccc(C(c2ccc([N+](C)(C)C)cc2)c2ccc([N+](C)(C)C)cc2)cc1 [LCV-10,1,1]	32										
CCCCCCCCCCCCCCCCCC[N+](C)(C)c1ccc(C(c2ccc(N(C)C)cc2)c2ccc(N(C)C)cc2)cc1 [LCV-18,0,0]		same differential									
CCCCCCCCCC[N+](C)(C)c1ccc(C(c2ccccc2)c2ccc(N(C)C)cc2)cc1 (centres unmarked) [LMG-10,0]			quite potent								
CCCCCCCCCCC[N+](C)(C)c1ccc(C(c2ccccc2)c2ccc(N(C)C)cc2)cc1 (centres unmarked) [LMG-11,0]			quite potent								
CCCCCCCCCCCCCCCC[N+](CC)(CC)c1ccc(N(c2ccc(N(CC)CC)cc2)c2ccc(N(CC)CC)cc2)cc1 [TET-16,0,0]		500 ×		250							
CCCCCCCCCCCCCCCC[N+](CC)(CC)c1ccc(N(c2ccc([N+](C)(CC)CC)cc2)c2ccc([N+](C)(CC)CC)cc2)cc1 [TET-16,1,1]				0.5	no difference in activity						
CCCCCCCC[N+](C)(C)CCCN(CCC[N+](C)(C)CCCCCCCC)CCC[N+](C)(C)CCCCCCCC [sT-8,8,8,0]						4	2	32	32	125	32
CCCCCCCC[N+](C)(C)CCC[N+](C)(CCC[N+](C)(C)CCCCCCCC)CCC[N+](C)(C)CCCCCCCC [sT-8,8,8,1]						0.5	1	16	4	250	16
C=CC[N+](CCC[N+](C)(C)CCCCCCCC)(CCC[N+](C)(C)CCCCCCCC)CCC[N+](C)(C)CCCCCCCC [sT-8,8,8,3A]						1	1	16	4	125	8
CCCCCCCCCC[N+](C)(C)CCCN(CCC[N+](C)(C)CCCCCCCCCC)CCC[N+](C)(C)CCCCCCCCCC [sT-10,10,10,0]						0.5	0.5	0.5	1	2	0.5
CCCCCCCCCC[N+](C)(C)CCC[N+](C)(CCC[N+](C)(C)CCCCCCCCCC)CCC[N+](C)(C)CCCCCCCCCC [sT-10,10,10,1]						0.5	0.5	0.5	0.5	2	0.5
C=CC[N+](CCC[N+](C)(C)CCCCCCCCCC)(CCC[N+](C)(C)CCCCCCCCCC)CCC[N+](C)(C)CCCCCCCCCC [sT-10,10,10,3A]						0.5	0.25	0.5	0.5	1	0.5
CCCCCCCCCCC[N+](C)(C)CCCN(CCC[N+](C)(C)CCCCCCCCCCC)CCC[N+](C)(C)CCCCCCCCCCC [sT-11,11,11,0]						0.5	0.5	0.5	0.5	1	0.5
CCCCCCCCCCC[N+](C)(C)CCC[N+](C)(CCC[N+](C)(C)CCCCCCCCCCC)CCC[N+](C)(C)CCCCCCCCCCC.[Br-].[Br-].[Br-].[I-] [sT-11,11,11,1]						0.5	≤0.25	0.25	0.25	1	0.5
C=CC[N+](CCC[N+](C)(C)CCCCCCCCCCC)(CCC[N+](C)(C)CCCCCCCCCCC)CCC[N+](C)(C)CCCCCCCCCCC [sT-11,11,11,3A]						0.5	0.5	0.5	0.5	1	1
CCCCCCCCCCC[N+](C)(C)CCC[N+](CCC[N+](C)(C)CCCCCCCCCCC)(CCC[N+](C)(C)CCCCCCCCCCC)Cc1ccccc1 [sT-11,11,11,Bn]						0.25	≤0.25	0.5	0.5	1	≤0.25
CCCCCCCCCCCC[N+](C)(C)CCCN(CCC[N+](C)(C)CCCCCCCCCCCC)CCC[N+](C)(C)CCCCCCCCCCCC [sT-12,12,12,0]						0.5	0.5	1	1	4	1
CCCCCCCCCCCC[N+](C)(C)CCC[N+](C)(CCC[N+](C)(C)CCCCCCCCCCCC)CCC[N+](C)(C)CCCCCCCCCCCC [sT-12,12,12,1]						1	0.5	1	1	4	2
C=CC[N+](CCC[N+](C)(C)CCCCCCCCCCCC)(CCC[N+](C)(C)CCCCCCCCCCCC)CCC[N+](C)(C)CCCCCCCCCCCC [sT-12,12,12,3A]						1	≤0.25	0.5	0.5	2	0.5
CCCCCCCCCCCC[N+](C)(C)CCC[N+](CCC[N+](C)(C)CCCCCCCCCCCC)(CCC[N+](C)(C)CCCCCCCCCCCC)Cc1ccccc1 [sT-12,12,12,Bn]						1	0.5	0.5	0.5	2	0.5
CCCCCCCCCCCCC[N+](C)(C)CCCN(CCC[N+](C)(C)CCCCCCCCCCCCC)CCC[N+](C)(C)CCCCCCCCCCCCC [sT-13,13,13,0]						1	0.5	1	1	8	1
CCCCCCCCCCCCC[N+](C)(C)CCC[N+](C)(CCC[N+](C)(C)CCCCCCCCCCCCC)CCC[N+](C)(C)CCCCCCCCCCCCC [sT-13,13,13,1]						2	0.5	1	1	4	1
C=CC[N+](CCC[N+](C)(C)CCCCCCCCCCCCC)(CCC[N+](C)(C)CCCCCCCCCCCCC)CCC[N+](C)(C)CCCCCCCCCCCCC [sT-13,13,13,3A]						2	1	1	1	4	1
